Patent US20190161480A1, “Chemical Compounds” (GLAXOSMITHKLINE INTELLECTUAL PROPERTY DEVELOPMENT LIMITED, priority 2016, published 2019)
Entries after “also recorded” stand apart in the source; their conditions may differ.

Experiments:
PI3Kδ in CD4+ T cells = assay: Cellular washout in CD4+ T cells (αCD3 stimulation, IFNγ readout); type: cell-based, human; settings: IC50 curve 48 h after washing cells versus no wash; five donors
Experimental: CD4+T cells were isolated from leukodepletion filter samples taken from healthy volunteers using Histopaque 1077 (Sigma Aldrich). Briefly, blood was allowed to drip into a 50 mL falcon tube and mixed with PBS (40 mL). 20 mL of diluted blood was then slowly layered onto 15 mL of Histopaque in a 50 mL falcon tube, which was then centrifuged at 800 rcf for 20 min at room temperature. The PBMC layer was then collected with a pasteur pipette into a new 50 mL falcon tube, and up to 50 mL of PBS was added. Cells were centrifuged at 300-400 rcf for 10 min at room temperature, supernatant was discarded and a second washing step was performed with PBS. Cells were then resuspended in 40 mL PBS+0.5% Bovine Serum Albumin (BSA). Isolation of CD4+T cells was performed according to manufacturer's protocol (Miltenyi Biotec, 130-096-533). 1×10^6 CD4+T cells were dispensed into a 24 well plate with a final volume of 1 mL per well. Compounds at 1000× the final assay concentration, or DMSO, were then added to wells and cells were incubated for 2 h. 2×10^5 cells and media was added to a 96-well plate (in duplicate) and classified as no-wash. […] Supernatant and cells were centrifuged at 800 rcf for 5 min and 120 μL of supernatant was collected and analysed using MSD IFNγ kit as detailed above for the human whole-blood assay. […]

PI3Kβ = PI3Kβ (Homo sapiens, UniProt P42338); assay: PI3K HTRF assay, PI3K-beta; type: biochemical; settings: read-out: pIC50 PI3Kβ (converted); further: 400 µM ATP
Experimental: (§1) The binding of compounds to PI3K-alpha/beta/delta/gamma is determined by homogeneous time resolved fluorescence (HTRF) assays as follows;
(§2) Briefly, solid compound is dissolved in 100% DMSO at a concentration of 2 mM. Dilutions are prepared in 100% DMSO using a 1 in 4 serial step dilution. The dilutions are transferred to black low volume Greiner assay plates ensuring that the DMSO concentration is constant across the plate at 1% (0.1 μL/well).
(§3) PI3K Reaction Buffer (contains 50 mM HEPES pH 7.0 (NaOH), 150 mM NaCl, 10 mM MgCl2, 2.3 mM sodium cholate, […] CHAPS made up in milliQ water). Fresh DTT is added at a final concentration of 1 mM on the day of use.
(§4) Enzyme solutions: 1× PI3K Assay Buffer containing: • 550 pM PI3K-Alpha enzyme (275 pM final assay concentration) • 800 pM PI3K-Beta enzyme (400 pM final assay concentration) • 3 nM PI3K-Delta enzyme (1.5 nM final assay concentration) • 10 nM PI3K-Gamma enzyme (5 nM final assay concentration)
(§5) These concentrations are optimal to achieve a signal:background of between 1.5-4.5. The enzyme solution is added to columns 1-24 (3 μL/well) and plates are incubated for 15 minutes at room temperature.
(§6) Substrate solution: 1× PI3K Assay Buffer containing: • PI3K-Alpha: 500 μM ATP, 20 μM PIP2 and 120 nM biotin-PIP3.
(§7) This is added to all wells and plates are incubated for 1 hour at room temperature.
(§8) Detection solution: PI3K Detection Buffer (contains 50 mM HEPES pH 7.0 (HCl), 150 mM NaCl, 2.3 mM sodium cholate, 10 μM CHAPS, 240 mM potassium fluoride) containing 2 mM DTT (2× final assay concentration), 90 nM GRP-1 PH domain, 300 nM Streptavidin-APC and 24 nM Europium-anti-GST (6× final assay concentrations).
(§9) This is mixed left at room temperature (protected from light).
(§10) STOP solution: PI3K STOP Buffer (contains 50 mM HEPES pH 7.0 (HCl), 150 mM NaCl, 2.3 mM sodium cholate, 10 μM CHAPS, 150 mM EDTA).
(§11) Detection solution is diluted 1:1 with STOP solution and added to all wells (3 μL/well). Plates are covered and incubated on the bench for 45-60 minutes.
(§12) Plates are read on a PerkinElmer Envision, measuring TR-FRET between the complex formed between the GST-tagged PH domain and biotinylated PIP3 which both recruit fluorophores (Europium-labelled anti-GST & Strep-APC respectively). In the […] of an inhibitor, this complex is disrupted by the competitive action of non-biotinylated PIP3 (formed in the assay by the phosphorylation of PIP2 by the kinase & ATP). From this, the ratio of acceptor/donor was calculated (λex=317 nm, Δem donor=615 nm, Δem acceptor=665 nm) and used for data analysis.

PI3Kα = PI3Kα (Homo sapiens, UniProt P42336); assay: PI3K HTRF assay, PI3K-alpha; type: biochemical; settings: read-out: pIC50 PI3Kα (converted); further: 250 µM ATP
Experimental: as §1, §2, §3, §4, §5, §6, §7, §8, §9, §10, §11, §12

PI3Kδ [1] = target: T1, PI3Kδ (Homo sapiens, UniProt O00329); assay: Protein mass spectrometry: covalent adduct assessment and competition experiment; type: binding
Experimental: Compounds were incubated with 1 μM protein in a 10:1 inhibitor:protein ratio in buffer containing 50 mM HEPES, pH 7.0 (NaOH), 150 mM NaCl, 10 mM MgCl2, 2.3 mM cholate, 10 μM CHAPS. After the desired time, the assays were quenched with a 10% formic acid solution, and analysed by LCMS using an Agilent 6224 TOF LC/MS equipped with Agilent 1200 Series autosampler. Analytes were separated on a Polymer Labs (Agilent) PLRP-S column (50 mm×1 mm internal diameter, 5 μm particle size). LC conditions were 0.5 mL·min^−1 flow rate, 70° C., 10 μL injection volume. Gradient elution with (A) water containing 0.2% (v/v) formic acid and (B) acetonitrile containing 0.2% (v/v) formic acid. Gradient conditions were initially 10% B, increasing to 30% after 0.5 min, and then linearly to 80% B over 4.5 min, prior to a 1.2 min flush with 100% B and then a 1.9 minute equilibration with 10% B prior to the next injection. Mass spectra were then deconvoluted using Agilent MassHunter Qualitative Analysis version B.06.00 over the mass range 70-170 kDa to obtain the intact protein mass.
A potent reversible ATP competitive inhibitor was incubated with 1 μM protein in a 10:1 inhibitor:protein ratio in buffer containing 50 mM HEPES, pH 7.0 (NaOH), 150 mM NaCl, 10 mM MgCl2, 2.3 mM cholate, 10 μM CHAPS at room temperature. […] The assay was quenched at 5 min and analysed using the procedure detailed above.

PI3Kγ = PI3Kγ (Homo sapiens, UniProt P48736); assay: PI3K HTRF assay, PI3K-gamma; type: biochemical; settings: read-out: pIC50 PI3Kγ (converted); further: 15 µM ATP
Experimental: as §1, §2, §3, §4, §5, §6, §7, §8, §9, §10, §11, §12

PI3Kδ [2] = target: T1, PI3Kδ; assay: PI3Kδ jump dilution experiment; type: biochemical; settings: 15 min incubation, 100-fold dilution, read for 30 minutes
Experimental: Irreversibility of the PI3Kδ-Inhibitor complex, and reversibility of the non-covalent controls, was determined by jump-dilution assay as follows:
PI3Kδ enzyme was made up to a 100× assay concentration (final assay concentration=6 nM) in buffer solution (contains 50 mM HEPES pH 7.0 (NaOH), 150 mM NaCl, 10 mM MgCl2, 2.3 mM sodium cholate, 10 μM CHAPS made up in milliQ water).
100× enzyme solution was added to compound wells (20 μL/well), and incubated for 15 mins, after which point the assay was diluted 100-fold with commercially available ADP QUEST substrate solution, available from DiscoverX (calatog number: 90-0071), (3200 μL DiscoverX Reagent A, 6400 μL DiscoverX Reagent B, 1 mM ATP and 40 μM PIP2). Production of fluorescence signal was then measured immediately using a Tecan Safire II plate reader at 30 second intervals for 30 minutes (λex=544 nm, λem=590 nm).

T1 sequence (O00329 whole entry): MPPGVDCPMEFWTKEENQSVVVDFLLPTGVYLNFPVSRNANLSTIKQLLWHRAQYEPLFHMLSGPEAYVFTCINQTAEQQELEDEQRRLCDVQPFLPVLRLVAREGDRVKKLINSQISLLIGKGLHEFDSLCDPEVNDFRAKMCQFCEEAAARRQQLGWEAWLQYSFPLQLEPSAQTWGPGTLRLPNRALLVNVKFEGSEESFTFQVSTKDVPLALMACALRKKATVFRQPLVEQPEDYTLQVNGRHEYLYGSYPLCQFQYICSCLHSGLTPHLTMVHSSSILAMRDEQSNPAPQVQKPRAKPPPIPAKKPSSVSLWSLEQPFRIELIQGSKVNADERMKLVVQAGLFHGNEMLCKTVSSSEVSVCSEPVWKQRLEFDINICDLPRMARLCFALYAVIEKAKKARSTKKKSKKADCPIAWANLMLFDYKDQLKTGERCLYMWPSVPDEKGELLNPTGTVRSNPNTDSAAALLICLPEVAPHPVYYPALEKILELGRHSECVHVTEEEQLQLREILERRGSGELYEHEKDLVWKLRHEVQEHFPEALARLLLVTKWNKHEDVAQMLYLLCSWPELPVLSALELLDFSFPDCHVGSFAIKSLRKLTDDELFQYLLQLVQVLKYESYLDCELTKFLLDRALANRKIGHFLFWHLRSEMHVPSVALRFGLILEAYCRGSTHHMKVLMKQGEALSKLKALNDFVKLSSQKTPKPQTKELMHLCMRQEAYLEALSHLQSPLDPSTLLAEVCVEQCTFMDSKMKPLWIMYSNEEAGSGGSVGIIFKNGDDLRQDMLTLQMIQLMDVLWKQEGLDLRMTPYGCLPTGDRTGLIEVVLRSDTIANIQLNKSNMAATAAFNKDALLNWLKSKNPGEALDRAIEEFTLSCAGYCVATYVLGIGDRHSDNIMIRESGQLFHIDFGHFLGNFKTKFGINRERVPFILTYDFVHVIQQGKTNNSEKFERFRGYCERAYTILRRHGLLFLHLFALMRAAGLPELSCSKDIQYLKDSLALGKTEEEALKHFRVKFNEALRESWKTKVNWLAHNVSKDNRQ
T1 sequence (P27986 whole entry partner): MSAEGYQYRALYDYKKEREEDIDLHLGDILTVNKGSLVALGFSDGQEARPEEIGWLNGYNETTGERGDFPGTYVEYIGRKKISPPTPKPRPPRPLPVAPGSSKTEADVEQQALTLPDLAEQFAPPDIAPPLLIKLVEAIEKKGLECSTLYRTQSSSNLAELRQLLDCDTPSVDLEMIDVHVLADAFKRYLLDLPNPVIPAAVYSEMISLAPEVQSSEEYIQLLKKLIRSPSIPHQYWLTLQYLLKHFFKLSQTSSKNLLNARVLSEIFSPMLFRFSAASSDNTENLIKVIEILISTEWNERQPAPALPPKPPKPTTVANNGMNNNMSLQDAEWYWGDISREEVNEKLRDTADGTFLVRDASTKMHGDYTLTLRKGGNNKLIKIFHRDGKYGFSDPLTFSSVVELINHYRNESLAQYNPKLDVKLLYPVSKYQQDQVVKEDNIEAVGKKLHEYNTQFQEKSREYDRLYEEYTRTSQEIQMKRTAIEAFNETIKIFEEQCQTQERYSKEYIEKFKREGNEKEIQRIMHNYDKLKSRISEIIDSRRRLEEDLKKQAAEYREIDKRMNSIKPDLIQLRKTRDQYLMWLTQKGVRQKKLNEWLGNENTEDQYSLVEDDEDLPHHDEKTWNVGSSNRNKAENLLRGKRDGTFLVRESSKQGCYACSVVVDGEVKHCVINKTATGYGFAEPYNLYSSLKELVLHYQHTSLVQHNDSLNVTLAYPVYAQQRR
Sequence of PI3Kα (P42336 whole entry, species assumed): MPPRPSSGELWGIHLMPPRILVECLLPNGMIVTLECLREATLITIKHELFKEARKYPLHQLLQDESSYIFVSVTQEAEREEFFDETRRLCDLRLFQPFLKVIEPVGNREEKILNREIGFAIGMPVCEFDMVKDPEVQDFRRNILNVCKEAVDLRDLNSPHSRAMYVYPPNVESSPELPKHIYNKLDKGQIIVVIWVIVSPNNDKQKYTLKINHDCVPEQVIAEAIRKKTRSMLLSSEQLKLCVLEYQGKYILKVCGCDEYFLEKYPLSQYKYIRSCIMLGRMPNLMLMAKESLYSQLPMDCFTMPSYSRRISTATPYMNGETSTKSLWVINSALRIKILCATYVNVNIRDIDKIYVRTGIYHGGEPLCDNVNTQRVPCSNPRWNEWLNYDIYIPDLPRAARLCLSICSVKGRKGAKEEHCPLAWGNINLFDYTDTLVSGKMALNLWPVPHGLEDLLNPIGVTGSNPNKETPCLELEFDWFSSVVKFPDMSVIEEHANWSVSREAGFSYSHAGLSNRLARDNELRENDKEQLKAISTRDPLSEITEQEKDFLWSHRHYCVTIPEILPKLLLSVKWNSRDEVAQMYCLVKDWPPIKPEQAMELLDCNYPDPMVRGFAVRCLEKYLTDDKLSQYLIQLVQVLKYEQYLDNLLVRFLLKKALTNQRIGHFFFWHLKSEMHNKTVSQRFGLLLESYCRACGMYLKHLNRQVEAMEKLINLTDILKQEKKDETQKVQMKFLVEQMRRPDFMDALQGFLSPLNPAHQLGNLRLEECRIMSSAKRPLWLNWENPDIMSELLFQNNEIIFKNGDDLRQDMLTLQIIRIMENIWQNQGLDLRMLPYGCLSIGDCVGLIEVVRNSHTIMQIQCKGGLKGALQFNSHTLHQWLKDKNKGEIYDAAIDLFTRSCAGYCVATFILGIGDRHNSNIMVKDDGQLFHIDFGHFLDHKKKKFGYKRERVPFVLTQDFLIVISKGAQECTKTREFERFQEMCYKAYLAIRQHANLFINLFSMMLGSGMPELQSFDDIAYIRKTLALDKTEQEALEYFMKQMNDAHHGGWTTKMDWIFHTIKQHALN
Sequence of PI3Kα (P27986 whole entry partner, species assumed): as the sequence (P27986 whole entry partner) above
Sequence of PI3Kγ (P48736 whole entry, species assumed): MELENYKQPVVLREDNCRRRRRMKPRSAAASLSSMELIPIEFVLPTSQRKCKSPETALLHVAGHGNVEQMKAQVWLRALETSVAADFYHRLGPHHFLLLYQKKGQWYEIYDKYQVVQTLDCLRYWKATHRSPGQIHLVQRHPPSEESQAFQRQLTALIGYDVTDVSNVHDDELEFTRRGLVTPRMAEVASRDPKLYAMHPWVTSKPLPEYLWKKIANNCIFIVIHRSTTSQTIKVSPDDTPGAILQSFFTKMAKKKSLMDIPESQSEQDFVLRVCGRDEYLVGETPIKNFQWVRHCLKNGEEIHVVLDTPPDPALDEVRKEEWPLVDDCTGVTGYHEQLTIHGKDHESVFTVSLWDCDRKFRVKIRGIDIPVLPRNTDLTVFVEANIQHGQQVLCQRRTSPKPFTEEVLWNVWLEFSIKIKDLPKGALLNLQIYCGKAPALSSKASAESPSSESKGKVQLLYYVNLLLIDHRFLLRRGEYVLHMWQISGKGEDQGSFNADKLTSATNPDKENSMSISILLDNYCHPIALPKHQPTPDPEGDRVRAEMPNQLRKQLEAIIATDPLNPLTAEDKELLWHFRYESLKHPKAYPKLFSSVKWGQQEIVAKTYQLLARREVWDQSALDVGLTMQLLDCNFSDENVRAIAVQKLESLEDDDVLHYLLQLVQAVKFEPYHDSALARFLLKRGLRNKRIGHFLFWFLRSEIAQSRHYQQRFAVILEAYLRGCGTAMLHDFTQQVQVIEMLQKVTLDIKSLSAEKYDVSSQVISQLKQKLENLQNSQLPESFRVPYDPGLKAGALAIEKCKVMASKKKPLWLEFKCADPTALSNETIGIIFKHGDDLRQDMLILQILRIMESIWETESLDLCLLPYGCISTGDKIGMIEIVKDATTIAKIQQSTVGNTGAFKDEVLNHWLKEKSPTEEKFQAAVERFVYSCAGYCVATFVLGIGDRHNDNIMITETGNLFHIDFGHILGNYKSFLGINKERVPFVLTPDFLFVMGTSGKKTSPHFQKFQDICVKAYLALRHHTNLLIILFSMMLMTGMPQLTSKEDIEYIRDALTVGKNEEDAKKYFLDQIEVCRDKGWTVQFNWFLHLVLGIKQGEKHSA
Sequence of PI3Kβ (P42338 whole entry, species assumed): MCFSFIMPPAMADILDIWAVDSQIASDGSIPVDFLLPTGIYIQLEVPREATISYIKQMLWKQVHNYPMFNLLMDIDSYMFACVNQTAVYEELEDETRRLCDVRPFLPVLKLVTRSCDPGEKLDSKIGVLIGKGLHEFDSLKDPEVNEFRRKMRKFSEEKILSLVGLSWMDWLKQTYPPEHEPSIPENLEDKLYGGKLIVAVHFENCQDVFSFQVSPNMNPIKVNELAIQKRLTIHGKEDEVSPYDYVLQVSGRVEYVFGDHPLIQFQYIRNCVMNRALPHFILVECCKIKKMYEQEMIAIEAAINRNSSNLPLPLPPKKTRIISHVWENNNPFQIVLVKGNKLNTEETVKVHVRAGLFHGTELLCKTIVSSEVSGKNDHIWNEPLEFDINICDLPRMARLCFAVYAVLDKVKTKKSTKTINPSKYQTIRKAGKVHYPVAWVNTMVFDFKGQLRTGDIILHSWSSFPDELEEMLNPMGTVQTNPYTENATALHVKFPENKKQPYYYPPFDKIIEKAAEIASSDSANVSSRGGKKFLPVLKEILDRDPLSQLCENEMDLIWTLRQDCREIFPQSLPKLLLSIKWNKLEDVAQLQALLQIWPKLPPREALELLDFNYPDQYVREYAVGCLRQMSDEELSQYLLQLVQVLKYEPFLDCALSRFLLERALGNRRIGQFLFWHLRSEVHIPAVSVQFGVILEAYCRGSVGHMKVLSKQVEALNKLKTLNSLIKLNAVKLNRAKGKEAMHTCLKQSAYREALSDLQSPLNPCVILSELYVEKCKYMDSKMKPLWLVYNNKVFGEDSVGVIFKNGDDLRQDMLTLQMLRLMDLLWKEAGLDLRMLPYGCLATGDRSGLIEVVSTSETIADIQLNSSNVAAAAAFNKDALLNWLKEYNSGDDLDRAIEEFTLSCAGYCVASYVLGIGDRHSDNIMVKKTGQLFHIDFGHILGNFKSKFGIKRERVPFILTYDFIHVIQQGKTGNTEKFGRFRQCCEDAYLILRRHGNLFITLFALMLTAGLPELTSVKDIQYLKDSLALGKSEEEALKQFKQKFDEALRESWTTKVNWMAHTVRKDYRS
Sequence of PI3Kβ (P27986 whole entry partner, species assumed): as the sequence (P27986 whole entry partner) above

IC50 (PI3Kβ): 5.01 µM | IC50 (PI3Kα): 3.16 µM | Additional adducts on PI3Kδ (PI3Kδ [1]; 10:1 inhibitor:protein ratio, after 20 h (overnight)): no additional adducts | Covalent modification of PI3Kδ (protein mass spectrometry) (PI3Kδ [1]; 10:1 inhibitor:protein, incubated overnight): covalently modified | IC50 (PI3Kγ): 15.8 µM | Recovery of enzyme activity after jump dilution (PI3Kδ [2]): No recovery of activity
Compound: COc1ncc(-c2cc(-c3ncc(CN4CCN(C(C)C)CC4)o3)c3cn[nH]c3c2)cc1C(=O)Oc1ccc(F)cc1 [Example 7, 4-Fluorophenyl 5-(4-(5-((4-isopropylpiperazin-1-yl)methyl)oxazol-2-yl)-1H-indazol-6-yl)-2-methoxynicotinate]
Duration of action at PI3Kδ in CD4+ T cells (PI3Kδ in CD4+ T cells): at least 48 h | Adduct formation after preincubation of enzyme with potent ATP-competitive inhibitor (PI3Kδ [1]; competitor 10:1 for 15 min, then 2 equivalents of covalent inhibitor, quenched at 5 min): prevented covalent modification; also recorded: attentuated formation of this adduct
